According to patent US9655878B2, “Composition comprising coumestrol or a bean extract containing coumestrol” (AMOREPACIFIC CORPORATION, priority 2010, dated 2017):

Legend:
SH-SY5Y cells [1] = assay: Scavenging of reactive oxygen species produced by 6-OHDA (DCFH-DA); format: cell-based; details: 50 μM 6-OHDA, 6 hours, relative to negative control
Experimental: The same cells used in Test Example 4-1 were cultured under the same condition. The cultured cells were treated with 0.01, 0.1 or 1 μM coumestrol and then treated with 50 μM 6-OHDA 2 hours later to induce increase of reactive oxygen species (ROS) in the cells. After culturing the cells for 6 hours in an incubator, the quantity of ROS in the cells was measured using DCFH-DA and the decrease of the ROS was evaluated relative to the negative control group. The fluorescence intensity of DCF was measured with the Wallac VICTOR2 fluorometer (Wallac, Turku, Finland) at excitation wavelength of 485 nm and emission wavelength of 530 nm. ROS scavenging effect (%) relative to the negative control group was calculated from the measured fluorescence intensity.

[2] = cited from earlier work
[3] = tested on: aP2, Acrp30, PPAR, SREBP1c and FAS mRNA in adipocytes; assay: Expression of adipocyte-specific genes by Q-PCR; format: cell-based, mouse; set-up: dose or concentration left out as unconfirmed; details: coumestrol, relative to untreated group
Experimental: (§1) In order to evaluate the coumestrol's effect of inhibiting adipocyte differentiation, […] coumestrol (CMS) was administered continuously while 3T3-L1 mouse preadipocytes (CL-173, ATCC) were differentiated into adipocytes. […] Rosiglitazone (Rosi), which is known to promote adipocyte differentiation, was used as positive control and […] berberine (BBR), which is known to inhibit adipocyte differentiation, was used as negative control. On the day when adipocyte differentiation was started and on days 2, 4 and 6, the test substance was administered and the medium was changed. The adipocyte differentiation was carried out for about 7 days when the adipocyte differentiation was completed in the positive control group.
Also, expression of adipocyte-specific genes in the in the adipocytes was investigated by Q-PCR. The genes tested were aP2 (fatty acid binding protein 4, adipocyte specific type), Acrp30 (adiponectin), PPAR (peroxisome proliferator-activated receptor), SREBP1c (sterol regulatory element binding protein 1c) and FAS (fatty acid synthase), which are used as molecular markers of adipocyte differentiation and fatty acid synthesis.

[4] = tested on: Human umbilical vein endothelial cells (HUVECs); assay: Nicotine detoxifying effect, viability of vascular endothelial cells; format: cell-based; details: HUVEC, 25 mM nicotine, 24 hours, relative to untreated group, nicotine only 55.1
Experimental: Human umbilical vein endothelial cells (HUVECs, CRL-2873, ATCC) were used to evaluate the coumestrol's effect against nicotine which is a major toxic substance included in cigarettes. HUVECs were cultured under the condition of 37° C. and 5% CO2 using the microvascular endothelial cell growth medium-2 (EGM-2). The cells were seeded onto a 96-well plate, with 2×10^4 cells per well, and cultured for about 24 hours in a medium containing 10% FBS until ˜80% confluency. After treating with nicotine to a final concentration of 25 mM, the cells were cultured for 24 hours with 0.1, 1 or 10 μM coumestrol, except for the negative control group.

SH-SY5Y cells [5] = assay: Inhibition of decline of mitochondrial potential (JC-1); format: cell-based; details: 50 μM 6-OHDA, negative control 0
Experimental: (§2) SH-SY5Y cells (CRL-2266, ATCC) were used to evaluate the coumestrol's effect of protecting nerve cells from neurotoxins. The cells were cultured in a medium comprising 90% DMEM, 10% fetal calf serum, 100 IU/mL penicillin and 100 μg/mL streptomycin under the condition of 37° C. and 5% CO2. When the cells grew confluent, they were harvested with trypsin, diluted on a 96-well plate to 1×10^4 cells per well, and then grafted onto a culture dish. 24 hours later, after treating the cultured cells with 0.01, 0.1 or 1 μM coumestrol, the cells were treated with 50 μM 6-OHDA 2 hours later to induce cytotoxicity. A negative control group was treated only with 50 μM 6-OHDA. Also, mitochondrial potential of the cells was measured using the JC-1 fluorescent reagent (Beyotime, China).

mouse spleen cells = assay: Immune cell proliferating activity (CCK-8); format: cell-based, ICR mouse; details: 44 hours, relative to untreated group (100)
Experimental: Spleen was aseptically removed from an ICR mouse sacrificed by cervical dislocation. The spleen was washed with an RPMI 1640 solution and lightly smashed with a sterilized glass rod to isolate the mouse spleen cells. A suspension of the isolated cells was passed through a 200-mesh stainless steel sieve (Sigma Chemical Co., St. Louis, Mo., USA) and centrifuged for 10 minutes at 4° C. and 3,000 rpm in a 50-mL centrifuge tube. The resulting cell pellets were suspended in a lysing buffer (Tris-buffered ammonium chloride; 0.87% NH4Cl, pH 7.2) for 5 minutes to remove red blood cells. The cells were washed twice with RPMI by centrifugal washing, diluted to 5.0×10^6 cells/mL in 10%-FBS RPMI 1640, and seeded on a 96-well plate, with 90 μL per each well, for measurement of cell proliferating activity. After preparing a stock solution such that the final concentration of coumestrol was 0.1 or 1 μM and adding 10 μL to each well, the cells were cultured for 44 hours and the proliferating activity of the spleen cells was measured (CCK-8, Dojindo Laboratories, Japan). 10 μL of 10 μg/mL LPS was used as positive control.

[6] = tested on: 3T3-L1 mouse preadipocytes; assay: Inhibition of adipocyte differentiation, Oil Red O staining of triglycerides; format: cell-based; set-up: dose or concentration left out as unconfirmed; details: coumestrol administered continuously, about 7 days differentiation; compared with rosiglitazone and berberine
Experimental: as §1
Then, differentiation of adipocytes was identified by staining triglycerides in the cells with Oil Red O (Sigma).

SH-SY5Y cells [7] = assay: cells; format: cell-based; details: Homo sapiens, read-out: Viability of nerve cells (%)
Experimental: as §2

O=c1oc2cc(O)ccc2c2oc3cc(O)ccc3c12 [Coumestrol, 3,9-dihydroxy-6H-benzofuro(3,2-c)(1)benzopyran-6-one]
ROS scavenging effect (%) (SH-SY5Y cells [1]; 0.01 μM): 73.0%
ROS scavenging effect (%) (SH-SY5Y cells [1]; 0.1 μM): 86.7%
ROS scavenging effect (%) (SH-SY5Y cells [1]; 1 μM): 93.5%
bioavailability upon oral administration [2]: about 11.7%
mRNA expression of the molecular markers of adipocyte differentiation and fatty acid synthesis [3]: remarkably decreased
viability at 0.1 µM ([4]; 0.1 μM): 67.2%
viability at 1 µM ([4]; 1 μM): 72.2%
viability at 10 µM ([4]; 10 μM): 88.9%
Effect of inhibiting decline of mitochondrial potential (%) (SH-SY5Y cells [5]; 0.01 μM): 13.2%
Effect of inhibiting decline of mitochondrial potential (%) (SH-SY5Y cells [5]; 0.1 μM): 29.1%
Effect of inhibiting decline of mitochondrial potential (%) (SH-SY5Y cells [5]; 1 μM): 43.0%
activity at 0.1 µM (mouse spleen cells; 0.1 μM): 278%
activity at 1 µM (mouse spleen cells; 1 μM): 283%
adipocyte differentiation (Oil Red O stained area) [6]: remarkably decreased
viability at 0.01 µM (SH-SY5Y cells [7]): 94.4%
viability at 0.1 µM (SH-SY5Y cells [7]): 96.5%
viability at 1 µM (SH-SY5Y cells [7]): 98.2%
